Test results taken from the supplement of paper PMC10307832.

Columns and labels:
Assay in all cases: relative viability (nuclei count vs DMSO), 5 days (fraction); higher = more cells survive
[1] = compound: CC1=CN2C(=O)C=C(N=C2C(=C1)C(C)NC3=CC=CC=C3)N4CCOCC4 [TGX 221] + CS(=O)(=O)CCNCc1ccc(-c2ccc3ncnc(Nc4ccc(OCc5cccc(F)c5)c(Cl)c4)c3c2)o1 [Lapatinib] (partner 2 µM)
Outline: (§1)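 A single step with final 0.05% Triton X-100, 1% formaldehyde and 1 ug/ml Hoechst fixed the cells and stained nuclei 5 days after treatment. Lung cancer cell lines in 1536-well plates had been treated by pin tool the day after seeding with one drug alone or a fixed anchor-drug dose plus five library-drug doses (not always all listed) in √10 steps, and nuclei were counted on 4× images. Relative viability is the ratio of nuclei in treated wells to nuclei in vehicle wells, taken as the median of duplicate plates.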

[2] = compound: C1=CC=C(C(=C1)C2=CC=C(C=C2)C3=CSC4=C3C(=C(C(=O)N4)C#N)O)O + C[C@@H](Oc1cc(-c2cnn(C3CCNCC3)c2)cnc1N)c1c(Cl)ccc(F)c1Cl [Crizotinib] (partner 1 µM)
Outline: as §1

[3] = compound: C1=CC=C(C(=C1)C2=CC=C(C=C2)C3=CSC4=C3C(=C(C(=O)N4)C#N)O)O + CCNC(=O)c1noc(-c2cc(C(C)C)c(O)cc2O)c1-c1ccc(CN2CCOCC2)cc1 [Luminespib] (partner 0.01 µM)
Outline: as §1

[4] = compound: C1=CC=C(C(=C1)C2=CC=C(C=C2)C3=CSC4=C3C(=C(C(=O)N4)C#N)O)O + NC(=O)Nc1cc(-c2cccc(F)c2)sc1C(=O)N[C@H]1CCCNC1 [AZD7762] (partner 0.2 µM)
Outline: as §1

Cell Line | relative viability ([1]; first compound 0.08 µM) | relative viability ([1]; first compound 0.253 µM) | relative viability ([1]; first compound 0.8 µM) | relative viability ([1]; first compound 2.53 µM) | relative viability ([1]; first compound 8 µM) | relative viability ([2]; first compound 0.08 µM) | relative viability ([2]; first compound 0.253 µM) | relative viability ([2]; first compound 0.8 µM) | relative viability ([2]; first compound 2.53 µM) | relative viability ([2]; first compound 8 µM) | relative viability ([3]; first compound 0.08 µM) | relative viability ([3]; first compound 0.253 µM) | relative viability ([3]; first compound 0.8 µM) | relative viability ([3]; first compound 2.53 µM) | relative viability ([3]; first compound 8 µM) | relative viability ([4]; first compound 0.08 µM) | relative viability ([4]; first compound 0.253 µM) | relative viability ([4]; first compound 0.8 µM) | relative viability ([4]; first compound 2.53 µM) | relative viability ([4]; first compound 8 µM)
NCI-H2170 | 0.285 | 0.26 | 0.264 | 0.276 | 0.265 | 1.13 | 1.34 | 1.25 | 1.28 | 0.888 | 0.594 | 1.11 | 0.992 | 0.752 | 0.609 | 0.898 | 0.722 | 0.875 | 0.842 | 0.548
LU99A | 0.957 | 0.865 | 0.939 | 1.01 | 0.913 | 0.52 | 0.524 | 0.598 | 0.616 | 0.527 | 0.245 | 0.234 | 0.295 | 0.261 | 0.242 | 0.331 | 0.293 | 0.335 | 0.391 | 0.275
NCI-H358 | 0.477 | 0.458 | 0.472 | 0.42 | 0.442 | 0.59 | 0.478 | 0.718 | 0.516 | 0.553 | 0.304 | 0.331 | 0.293 | 0.603 | 0.221 | 0.486 | 0.542 | 0.532 | 0.605 | 0.488
LK-2 | 0.853 | 0.891 | 0.887 | 0.915 | 1.01 | – | – | 0.236 | 0.21 | 0.296 | – | 0.192 | 0.193 | 0.184 | 0.191 | 0.309 | 0.522 | 0.277 | 0.517 | 0.274
NCI-H596 | 1.13 | 1.09 | 1.03 | 0.993 | 0.958 | 0.96 | 1.02 | 1.08 | 0.97 | 0.834 | 0.696 | 0.941 | 0.943 | 1.15 | 0.904 | 0.862 | 1.09 | 1.21 | 1.18 | 0.986
NCI-H1437 | 0.904 | 0.722 | 0.773 | 0.72 | 0.711 | 0.699 | 0.989 | 0.883 | 1.01 | 0.765 | 1.01 | 1.34 | 1.17 | 1.17 | 0.902 | 1.1 | 1.27 | 1.12 | 1.22 | 1.15
PC-3 [JPC-3] | 0.448 | 0.46 | 0.445 | 0.431 | 0.429 | 0.986 | 1.12 | 0.915 | 1 | 0.891 | 0.564 | 0.774 | 0.787 | 0.679 | 0.74 | 0.597 | 0.935 | 0.645 | 0.745 | 0.618
NCI-H1651 | 0.777 | 0.644 | 0.758 | 0.804 | 0.599 | 0.878 | 0.823 | 0.851 | 0.878 | 0.826 | 0.77 | 0.818 | 0.971 | 0.974 | 0.546 | 0.496 | 0.454 | 0.428 | 0.479 | 0.334
CAL-12T | – | 0.533 | 0.576 | – | 0.621 | – | 0.789 | 0.441 | 0.739 | 0.485 | 0.296 | 0.565 | 0.362 | 0.585 | 0.264 | 0.671 | 0.653 | 0.571 | 0.615 | 0.648
NCI-H23 | 1.13 | 0.95 | 1.1 | 1.12 | 0.975 | 0.466 | 0.686 | 0.381 | 0.511 | 0.386 | – | 0.19 | 0.212 | 0.197 | 0.211 | 0.232 | 0.168 | 0.239 | 0.229 | 0.229
